The values below come from ChEMBL document CHEMBL5247634, “Design, synthesis and anticancer evaluation of selective 2,4-disubstituted pyrimidine CDK9 inhibitors” (Eur J Med Chem, 2022).

One experiment has as its system HCT-116. The experiment in a line: Antiproliferative activity against human HCT-116 cells assessed as cell growth inhibition measured after 72 hrs by MTT assay. The class given is functional, cell-based. The conditions noted are these: HCT-116, 72 h. In general terms: Formazan colour is commonly taken as a measure of viable cells.
The next experiment has as its system L02. Kind of experiment: Antiproliferative activity against human L02 cells assessed as cell growth inhibition measured after 72 hrs by MTT assay. In kind it is functional, cell-based. To be noted: L02, 72 h.
Another experiment deals with PANC-1. The experiment in a line: Antiproliferative activity against human PANC-1 cells assessed as cell growth inhibition measured after 72 hrs by MTT assay. The class given is functional, cell-based. To be noted: PANC-1, 72 h.
Another experiment relates to NCI-H1975. Kind of experiment: Antiproliferative activity against human NCI-H1975 cells assessed as cell growth inhibition measured after 72 hrs by MTT assay. The class given is functional, cell-based. The conditions noted are these: NCI-H1975, 72 h.
For another experiment, the species on record is Homo sapiens. The experiment in a line: Selectivity index, ratio of IC50 for CDK2/cyclin A (unknown origin) to IC50 for CDK9/cyclin T1 (unknown origin).
The next experiment has as its system A549. The experiment in a line: Antiproliferative activity against human A549 cells assessed as cell growth inhibition measured after 72 hrs by MTT assay. In kind it is functional, cell-based. To be noted: A549, 72 h.
Experiment [1] concerns the target Cyclin-dependent kinase 2/cyclin A (Homo sapiens, UniProt P24941). Kind of experiment: Inhibition of CDK2/cyclin A (unknown origin) incubated for 1 hr in presence of ATP by ADP-glo luminescent assay. In kind it is protein-complex assay. For orientation: In ADP-Glo the light output rises with the ADP produced.
For the next experiment, the system named is A-431. The experiment in a line: Antiproliferative activity against human A-431 cells assessed as cell growth inhibition measured after 72 hrs by MTT assay. In kind it is functional, cell-based. The conditions noted are these: A-431, 72 h.
The target in a further experiment is CDK9/cyclin T1 (Homo sapiens, UniProt P50750). The experiment in a line: Inhibition of CDK9/cyclin T1 (unknown origin) using as PDKtide substrate incubated for 1 hr in presence of ATP by ADP-glo luminescent assay. In kind it is protein-complex assay.
CDK9/cyclin T1, sequence (O60563 whole entry): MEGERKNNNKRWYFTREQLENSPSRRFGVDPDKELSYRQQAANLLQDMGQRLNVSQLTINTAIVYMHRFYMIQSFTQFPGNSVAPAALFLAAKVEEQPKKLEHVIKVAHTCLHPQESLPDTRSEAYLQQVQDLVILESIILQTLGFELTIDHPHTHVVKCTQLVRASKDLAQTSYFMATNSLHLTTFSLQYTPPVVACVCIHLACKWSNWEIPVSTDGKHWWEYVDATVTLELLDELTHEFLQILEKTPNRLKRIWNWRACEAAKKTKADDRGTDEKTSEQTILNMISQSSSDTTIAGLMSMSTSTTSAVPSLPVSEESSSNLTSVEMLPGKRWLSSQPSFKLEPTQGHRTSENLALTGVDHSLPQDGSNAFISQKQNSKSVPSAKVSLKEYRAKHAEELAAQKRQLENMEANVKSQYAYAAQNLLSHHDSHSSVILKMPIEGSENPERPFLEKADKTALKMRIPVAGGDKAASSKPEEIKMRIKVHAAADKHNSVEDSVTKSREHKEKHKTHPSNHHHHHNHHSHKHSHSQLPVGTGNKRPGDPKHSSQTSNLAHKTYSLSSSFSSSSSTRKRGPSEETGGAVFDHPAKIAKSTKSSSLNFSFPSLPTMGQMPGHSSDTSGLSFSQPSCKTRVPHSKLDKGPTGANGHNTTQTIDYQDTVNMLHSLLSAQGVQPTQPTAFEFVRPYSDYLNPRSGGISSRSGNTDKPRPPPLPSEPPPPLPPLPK
CDK9/cyclin T1, sequence (P50750 whole entry): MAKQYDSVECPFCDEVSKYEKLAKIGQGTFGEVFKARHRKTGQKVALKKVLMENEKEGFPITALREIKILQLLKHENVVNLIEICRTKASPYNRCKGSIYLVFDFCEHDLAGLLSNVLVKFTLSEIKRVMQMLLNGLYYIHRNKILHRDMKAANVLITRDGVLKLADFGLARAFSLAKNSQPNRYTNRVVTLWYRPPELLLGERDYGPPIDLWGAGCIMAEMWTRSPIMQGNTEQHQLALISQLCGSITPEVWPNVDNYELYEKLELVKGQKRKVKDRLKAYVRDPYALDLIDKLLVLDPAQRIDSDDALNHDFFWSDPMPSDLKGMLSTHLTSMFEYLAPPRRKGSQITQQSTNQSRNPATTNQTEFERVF
The target of experiment [2] is Cyclin-dependent kinase 2 (Homo sapiens, UniProt P24941).
Description: Inhibition of CDK2 (unknown origin)

The IC50 is the point on the concentration scale where inhibition reaches its midpoint. In the case of `CC(C)(C)OC(=O)N1CCN(C(=O)c2ccc(Nc3nccc(-c4ccc(F)cc4OCc4ccccc4)n3)cc2)CC1`, the IC50 with HCT-116 was 10.2 µM; in the experiment with L02, 5.69 µM; with PANC-1, 0.23 µM; in the experiment with NCI-H1975, 1.74 µM; with A549, 1.61 µM; in experiment [1], 0.924 µM. Also, the IC50 with A-431 was found to be 0.73 µM; at CDK9/cyclin T1 it was 0.0855 µM. Further, the Selectivity Index in the experiment listed under Homo sapiens stood at 10.4.

In the case of `O=C(NCCN1CCCCC1)c1ccc(Nc2nccc(-c3ccc(F)cc3OCc3ccccc3)n2)cc1`, the IC50 came to 1.27 µM in the experiment with HCT-116; 3.02 µM in the experiment on L02; 1.6 µM with PANC-1; 5.83 µM in the experiment with NCI-H1975; 8.47 µM with A549; 1.84 µM with A-431.

Consider `O=C(NCCN1CCOCC1)c1ccc(Nc2nccc(-c3ccc(F)cc3OCc3ccccc3)n2)cc1`, for which the IC50 is 18 µM with HCT-116; 18.9 µM with L02; 16.5 µM in the experiment on PANC-1; 10.6 µM in the experiment on NCI-H1975; 16.6 µM with A-431.

`CCN(CC)CCNC(=O)c1ccc(Nc2nccc(-c3ccc(F)cc3OCc3ccccc3)n2)cc1`: the IC50 turned out to be 0.13 µM in the experiment with HCT-116; 3.69 µM in the experiment on L02; 1.08 µM in the experiment with PANC-1; 1.2 µM in the experiment with NCI-H1975; 0.796 µM in experiment [1]; 1.32 µM with A-431. Also, the IC50 on CDK9/cyclin T1 was 0.0267 µM. In addition, the Selectivity Index in the experiment filed under Homo sapiens is 29.8.

As for `O=C(NCCO)c1ccc(Nc2nccc(-c3ccc(F)cc3OCc3ccccc3)n2)cc1`, the IC50 came to 15.3 µM with HCT-116; 23.3 µM in the experiment on L02; 7.19 µM with PANC-1; 19 µM with NCI-H1975; 17.7 µM with A549; 6.33 µM with A-431.

For the compound `CNCCNC(=O)c1ccc(Nc2nccc(-c3ccc(F)cc3OC)n2)cc1`, the IC50 worked out at 16.3 µM with HCT-116; 22.7 µM in the experiment on L02; 9.41 µM with PANC-1; 9.61 µM in the experiment on NCI-H1975; 10.1 µM in the experiment with A549; 6.7 µM with A-431.

Regarding `COc1cc(F)ccc1-c1ccnc(Nc2ccc(C(=O)NCCN(C)C)cc2)n1`, the IC50 came out at 12.5 µM with HCT-116; 20.6 µM in the experiment with L02; 4.58 µM in the experiment on PANC-1; 2.17 µM in the experiment on NCI-H1975; 4.67 µM in the experiment with A549; 3.69 µM with A-431.

As for `O=C(NCCCN1CCOCC1)c1ccc(Nc2nccc(-c3ccc(F)cc3OCc3ccccc3)n2)cc1`, the IC50 in the experiment with HCT-116 was found to be 2.75 µM; with L02, 14.5 µM; in the experiment on PANC-1, 2 µM; with NCI-H1975, 2.71 µM; with A549 it was 4.04 µM; in the experiment on A-431, 2.52 µM.

With `COc1ccccc1-c1cc(Nc2cccc(CS(N)(=O)=O)c2)ncn1`, the IC50 in experiment [2] was > 2 µM.

For `O=C(NCCF)c1ccc(Nc2nccc(-c3ccc(F)cc3OCc3ccccc3)n2)cc1`, the IC50 worked out at 17.6 µM with HCT-116; 35.4 µM in the experiment with L02; 52.5 µM in the experiment on PANC-1; 28.5 µM with NCI-H1975; 37.1 µM with A-431.

As for `CC(C)N(CCNC(=O)c1ccc(Nc2nccc(-c3ccc(F)cc3OCc3ccccc3)n2)cc1)C(C)C`, the IC50 in the experiment on HCT-116 is 0.37 µM; in the experiment on L02, 2.08 µM; with PANC-1 it was 0.56 µM; in the experiment with NCI-H1975, 0.86 µM; in [1] it was 0.915 µM; in the experiment with A-431 it was 0.59 µM. Further, the IC50 at CDK9/cyclin T1 is 0.0596 µM. Further, in the experiment filed under Homo sapiens, the Selectivity Index was 15.3.

As to `COc1cc(F)ccc1-c1ccnc(NC(=O)[C@H]2CCC[C@@H](NC(C)=O)C2)c1`, inhibition in experiment [2] was half-maximal at 2.46 µM (IC50).

In experiment [2], `CC(C)c1c2cc(-c3ccnc(N[C@H]4CC[C@H](NC5CCOCC5)CC4)n3)ccc2nn1C` came in with an IC50 of 0.4 µM.

`CN1CCN(C(=O)c2ccc(Nc3nccc(-c4ccc(F)cc4OCc4ccccc4)n3)cc2)CC1`: the IC50 is 5.56 µM with HCT-116; 5.28 µM with L02; 2.48 µM in the experiment with PANC-1; 1.21 µM in the experiment with NCI-H1975; 2.38 µM in the experiment with A549; 1.05 µM in the experiment on A-431.

With `COc1cc(F)ccc1-c1ncnc(Nc2cccc(C[S@](C)(=N)=O)c2)n1` [ATUVECICLIB], the IC50 in the experiment with HCT-116 stood at 0.26 µM; in the experiment with L02, 2.55 µM; in the experiment with PANC-1, 0.11 µM; with NCI-H1975, 0.72 µM; in the experiment on A-431, 0.34 µM.

As to `CNCCNC(=O)c1ccc(Nc2nccc(-c3ccc(F)cc3OCc3ccccc3)n2)cc1`, the IC50 with HCT-116 is 3.3 µM; in the experiment on L02, 18.7 µM; in the experiment with PANC-1, 3.9 µM; in the experiment on NCI-H1975, 1.15 µM; in the experiment with A549 it was 3.8 µM; in the experiment on A-431, 2.84 µM.

Take `O=C(O)c1ccc(Nc2nccc(-c3ccc(F)cc3OCc3ccccc3)n2)cc1`: the IC50 was found to be 9.69 µM in the experiment with HCT-116; 22.2 µM in the experiment on L02; 12.7 µM with PANC-1; 8.35 µM in the experiment on NCI-H1975; 0.636 µM in [1]; 7.28 µM in the experiment with A-431. The IC50 at CDK9/cyclin T1 was found to be 0.0862 µM. In the experiment filed under Homo sapiens, the Selectivity Index was determined as 7.4.

`O=C(c1ccc(Nc2nccc(-c3ccc(F)cc3OCc3ccccc3)n2)cc1)N1CCNCC1`: the concentration for half-maximal inhibition (IC50) was found to be 2.39 µM in the experiment on HCT-116; 5.71 µM with L02; 2.87 µM with PANC-1; 2.23 µM in the experiment on NCI-H1975; 3.36 µM in the experiment on A-431.
